In ChEMBL document CHEMBL3137381, “MMV Box Onchocerca lienalis screening set”:

Tests used:
Format in all cases: functional
Onchocerca lienalis [1] = test: MMV: Percent motility assay at a compound concentration of 1.9e-7 M. Activity score legend: 3: Active, 2: Moderately active; 1: Inactive, 0: Toxic; settings: at 0.19 µM
Onchocerca lienalis [2] = test: MMV: Percent motility assay at a compound concentration of 7.8e-7 M. Activity score legend: 3: Active, 2: Moderately active; 1: Inactive, 0: Toxic; settings: at 0.78 µM
Onchocerca lienalis [3] = test: MMV: Percent motility assay at a compound concentration of 1.25e-5 M. Activity score legend: 3: Active, 2: Moderately active; 1: Inactive, 0: Toxic; settings: at 12.5 µM
Onchocerca lienalis [4] = test: MMV: Percent motility assay at a compound concentration of 3.1e-6 M. Activity score legend: 3: Active, 2: Moderately active; 1: Inactive, 0: Toxic; settings: at 3.1 µM

Measured: Motility

Cc1ccc(C2CC(C(F)(F)F)n3nc(C(=O)N4CCN(C(c5ccccc5)c5ccccc5)CC4)cc3N2)cc1 (stereo not drawn)
100%: Onchocerca lienalis [1] | Onchocerca lienalis [2] | Onchocerca lienalis [3] | Onchocerca lienalis [4]

Cc1ccc2nc(C)cc(Nc3cccc(C(F)(F)F)c3)c2c1.Cl
100%: Onchocerca lienalis [1] | Onchocerca lienalis [2] | Onchocerca lienalis [3] | Onchocerca lienalis [4]

CC(C)(C)c1ccc(C(=O)Nc2c3c(nn2-c2cccc(Cl)c2)CSC3)cc1
100%: Onchocerca lienalis [1] | Onchocerca lienalis [2] | Onchocerca lienalis [3] | Onchocerca lienalis [4]

CCOc1cc2c(cc1OCC)C(c1cc(Cl)c(O)c(OCC)c1)NCC2 (stereo not drawn)
100%: Onchocerca lienalis [1] | Onchocerca lienalis [2] | Onchocerca lienalis [3] | Onchocerca lienalis [4]

COc1ccc(N2CCN(C(CNC(=O)CC(C)(C)C)c3ccc4c(c3)OCO4)CC2)cc1 (stereo not drawn)
100%: Onchocerca lienalis [1] | Onchocerca lienalis [2] | Onchocerca lienalis [3] | Onchocerca lienalis [4]

CCCCCCn1c(=N)n(CC(O)COc2cccc(C)c2)c2ccccc21.Cl (stereo not drawn)
100%: Onchocerca lienalis [1] | Onchocerca lienalis [2] | Onchocerca lienalis [3] | Onchocerca lienalis [4]

COc1ccc(-c2cc(=O)oc3c4c(ccc23)OCN(Cc2ccc(F)cc2)C4)cc1
100%: Onchocerca lienalis [1] | Onchocerca lienalis [2] | Onchocerca lienalis [3] | Onchocerca lienalis [4]

CCOC(=O)C1(Cc2ccccc2)CCN(Cc2cccc(OC)c2O)CC1
100%: Onchocerca lienalis [1] | Onchocerca lienalis [2] | Onchocerca lienalis [3] | Onchocerca lienalis [4]

Oc1ccc(C(=C(Cl)Cl)c2ccc(O)cc2)cc1
100%: Onchocerca lienalis [1] | Onchocerca lienalis [2] | Onchocerca lienalis [3] | Onchocerca lienalis [4]

CC(C)(C)c1ccc2c(c1)CN(Cc1ccc(Cl)cc1)CO2
100%: Onchocerca lienalis [1] | Onchocerca lienalis [2] | Onchocerca lienalis [3] | Onchocerca lienalis [4]

CCCCC(O)(c1ccc(Cl)cc1)C(CN1CCOCC1)c1ccc(Cl)cc1.Cl (stereo not drawn)
100%: Onchocerca lienalis [1] | Onchocerca lienalis [2] | Onchocerca lienalis [3] | Onchocerca lienalis [4]

COc1ccc(OC)c(C2C3=C(CC(C)(C)CC3=O)N(c3ccc(Cl)c(Cl)c3)C3=C2C(=O)CC(C)(C)C3)c1
100%: Onchocerca lienalis [1] | Onchocerca lienalis [2] | Onchocerca lienalis [3] | Onchocerca lienalis [4]

Cc1cc(=O)oc2c1ccc1oc(C(=O)c3ccccc3)c(C)c12
100%: Onchocerca lienalis [1] | Onchocerca lienalis [2] | Onchocerca lienalis [3] | Onchocerca lienalis [4]

COc1ccc(CN2CCN(Cc3ccccc3)CC2)c(O)c1
100%: Onchocerca lienalis [1] | Onchocerca lienalis [2] | Onchocerca lienalis [3] | Onchocerca lienalis [4]

COc1ccc2c(c1OC)C(=O)N1c3ccccc3N=C(c3ccc(C)cc3)CC21 (stereo not drawn)
100%: Onchocerca lienalis [1] | Onchocerca lienalis [2] | Onchocerca lienalis [3] | Onchocerca lienalis [4]

CCCCCCc1cc(O)c2c3c(c(=O)oc2c1)CCC(C)C3 (stereo not drawn)
100%: Onchocerca lienalis [1] | Onchocerca lienalis [2] | Onchocerca lienalis [3] | Onchocerca lienalis [4]

Cl.OC(CNCc1ccccc1)Cn1c2ccccc2c2ccccc21 (stereo not drawn)
100%: Onchocerca lienalis [1] | Onchocerca lienalis [2] | Onchocerca lienalis [3] | Onchocerca lienalis [4]

COc1ccc(CCNC(=O)c2cc(S(=O)(=O)N3CC(C)CC(C)C3)ccc2Sc2ccc(F)cc2)cc1OC (stereo not drawn)
100%: Onchocerca lienalis [1] | Onchocerca lienalis [2] | Onchocerca lienalis [3] | Onchocerca lienalis [4]

CC1=C(CC(=O)c2cccc([N+](=O)[O-])c2)C(=O)c2ccccc2C1=O
100%: Onchocerca lienalis [1] | Onchocerca lienalis [2] | Onchocerca lienalis [3] | Onchocerca lienalis [4]

OC1CCCCC1C1(NC(=S)Nc2ccccc2)CCCCC1 (stereo not drawn)
100%: Onchocerca lienalis [1] | Onchocerca lienalis [2] | Onchocerca lienalis [3] | Onchocerca lienalis [4]

OC1=C2C(=Nc3ccccc3SC2c2ccc(Br)cc2)c2ccccc21 (stereo not drawn)
100%: Onchocerca lienalis [1] | Onchocerca lienalis [2] | Onchocerca lienalis [3] | Onchocerca lienalis [4]

COc1ccc(C)c2sc(N(Cc3cccnc3)C(=O)c3ccc(C#N)cc3)nc12
100%: Onchocerca lienalis [1] | Onchocerca lienalis [2] | Onchocerca lienalis [3] | Onchocerca lienalis [4]

COc1ccc(C(=O)C2CC2c2ccc(Cl)cc2)cc1 (stereo not drawn)
100%: Onchocerca lienalis [1] | Onchocerca lienalis [2] | Onchocerca lienalis [3] | Onchocerca lienalis [4]

CCCCCn1c(=N)n(CC(O)COc2cccc(C)c2)c2ccccc21.Cl (stereo not drawn)
100%: Onchocerca lienalis [1] | Onchocerca lienalis [2] | Onchocerca lienalis [3] | Onchocerca lienalis [4]

O=c1c2c([nH]c3ccccc13)CCCC2
100%: Onchocerca lienalis [1] | Onchocerca lienalis [2] | Onchocerca lienalis [3] | Onchocerca lienalis [4]

CCN1CCN(c2c(C(=O)c3ccccc3)cnc3cc(OC)c(OC)cc23)CC1
100%: Onchocerca lienalis [1] | Onchocerca lienalis [2] | Onchocerca lienalis [3] | Onchocerca lienalis [4]

Cc1ccc(S(=O)(=O)c2c(COC(=O)c3cccc(C)c3)c(-c3ccccc3)nn2C)cc1
100%: Onchocerca lienalis [1] | Onchocerca lienalis [2] | Onchocerca lienalis [3] | Onchocerca lienalis [4]
